Results taken from patent publication USRE31836E, “Pharmaceutical and dietary composition” (priority 1984, dated 1985).
Entries after “also recorded” stand apart in the source; their conditions may differ. Read-outs that look alike come from different tables or passages of the source.

What was measured:
PG formation = settings: cited from earlier work
[1] = cited from earlier work
NZB/W mouse = assay: NZB/W mouse, animal model for Sjogren's syndrome; format: in vivo
Sjogren's syndrome = settings: vitamin C 7.5 g/day for a year; person
Procedure: Associated with these disorders were brittle, frequently cracking nails and hypersensitivity of the hands to soaps and detergents. […] 50 mg/day pyridoxine (desirable for normal EFA metabolism) and 6×0.6 ml Evening Primrose oil capsules per day were added to the regime.

[2] = system: conversion of DGLA to 1 series PGs (human platelets); assay: tissue or blood; format: cell-based; settings: for effect on formation of 1 series PGs from DGLA: human platelets; for activity at 0.018 µg/mL / activity at 18 µg/mL: Homo sapiens, Platelet; for behaviour of treated normal platelets (PGE1 from DGLA): normal platelets compared with schizophrenic platelets
Procedure: (§1) The method is given in detail later herein but briefly human platelets are incubated with radioactive DGLA or arachidonic acid. The PGs produced during incubation are extracted by conventional means and separated by thin layer chromatography, and the amount of radioactivity appearing in each PG or related substance is counted. PGE 1, PGF 1α and thromboxane B1 from DGLA, and PGE 2, PGF 2α and thromboxane B2 from AA are estimated.
(§2) One day expired (2 days old) human platelets were obtained and used within 48 hours of expiration. One unit was centrifuged at 1000 g for 15 minutes and the supernatent drawn off. The platelet pellet was resuspended in Tris-NaCl-EDTA buffer, made up of 0.15 M NaCl, 0.15 M Tris HCl at pH 7.4 and 0.077 M NaEDTA (90:8:2 v/v/v). The platelets were recentrifuged, the supernatant removed and the pellet resuspended in Krebs-Henseleit buffer (without calcium) at pH 7.4. The washed platelets suspension contained about 1-2% red blood cells. All glassware used in the preparation of the platelets was siliconized.
Four equal sized 1 ml aliquots of the platelet suspension, containing 10^9 platelets/ml were incubated with e.g. 0.5 μCi ^14 C-DGLA for five minutes. At the beginning of the incubation the material under test was added to the suspensions. The reaction was stopped after five minutes by addition of 1/10 volume of 10% formic acid. The suspension was then extracted three times with ethyl acetate and the fractions pooled and dried under vacuum. The extract was then taken up with 5 ml chloroform/methanol (2/1, v/v). Recovery of radioactive material in the extract was checked by taking 50 μl of the chloroform/methanol and counting by liquid scintillation.
The chloroform/methanol extract was then reduced in volume to 1 ml under dry prepurified nitrogen. Thin layer chromatography was carried out on 500 μg precoated, prescored silica gel G Uniplates (Analtech). Plates were activated by heating to 100° C. for 1 hour immediately prior to use. The solvent system was chloroform:methanol:acetic acid:water (90:8:1:0:8). Reference compounds (PGsE1 and F1α and thromboxane B1) were run at the same time and visualized by phosphomolybdic acid spray followed by brief heating. The bands on the plates corresponding to the reference PGE1, PFG1α and TXB1 were scraped off and eluted with 20 ml acetone. Each elution was then evaporated to dryness and counted by liquid scintillation (Beckman 100 LS counter).
Three experiments were performed with DGLA and three with AA.

opiate receptor = settings: cited from earlier work
[3] = system: conversion of AA to 2 series PGs (human platelets); format: cell-based
Procedure: as §1, §2
Four equal sized 1 ml aliquots of the platelet suspension, containing 10^9 platelets/ml were incubated with e.g. 0.5 μCi ^14 C-DGLA for five minutes. […]
The chloroform/methanol extract was then reduced in volume to 1 ml under dry prepurified nitrogen. […] Each elution was then evaporated to dryness and counted by liquid scintillation (Beckman 100 LS counter). […]

[4] = read-out: PGE1 formation (precursor DGLA), percentage of control counts
[5] = read-out: TXB1 formation (precursor DGLA), percentage of control counts

For CCO [Ethyl alcohol, ethyl alcohol], the “effect on formation of thromboxane B2” value (PG formation; extremely high levels of ethanol, conversion of AA) is given as “can block the formation of thromboxane B2”, the “concentration of alcohol in human plasma at which signs of mild intoxication first appear” value ([1]; human plasma) is given as 20-30 mg % and the “concentration which produces "blind drunkenness"” value ([1]; in vivo) is given as 300 mg %.
With CCCCC[C@H](O)/C=C/[C@H]1[C@H](O)CC(=O)[C@@H]1CCCCCCC(=O)O [PGE1] the “effect on immunological abnormalities of the strain” value (NZB/W mouse) was “can correct many of the immunological abnormalities of the strain”.
In the case of O=C1O[C@H]([C@@H](O)CO)C(O)=C1O [Vitamin C, ascorbic acid], the “effect on well-being, dry eyes and mouth” value (Sjogren's syndrome) is given as “subjective sense of well-being and some slight improvement in the dry eyes and mouth” and the “effect on PG formation” value (PG formation; high concentrations of vitamin C, reports in the literature) is given as “both enhancing and reducing PG formation”.
In the case of CN1CC[C@@]23CCCC[C@@H]2[C@@H]1Cc1ccc(O)cc13 [d-levorphanol], the “effect on conversion of DGLA to PGE1” value ([2]; d-isomer of levorphanol) is listed as “no such effect”, the “effect on formation of 1 series PGs from DGLA” value (“effect on formation … from DGLA” below) [2] is listed as “not shown by d-levorphanol” and the “binding to and activation of the opiate receptor” value (shortened to “binding to and activation”) (opiate receptor) is listed as “does not”. For the same compound, the “binding to and activation” value (opiate receptor; listed as d-isomer of levorphanol) was “devoid of opiate activity”.
Work on CN1CC[C@]23CCCC[C@H]2[C@H]1Cc1ccc(O)cc13 [l-levorphanol] yielded an activity at 0.018 µg/mL [2, 4] of 23%, an activity at 18 µg/mL [2, 4] of 72% and an activity at 0.018 µg/mL [2, 5] of 20%. The activity at 18 µg/mL [2, 5] was 76%, the “effect on formation … from DGLA” value [2] was “reduced formation of 1-series PGs; also recorded: able to block the formation of 1 series PGs from DGLA” and the “effect on conversion of DGLA to PGE1” value ([2]; l-levorphanol 100 μg/ml) was “inhibiting conversion of DGLA to PGE1”. The “behaviour of treated normal platelets (PGE1 from DGLA)” value [2] was “behave like schizophrenic platelets”, the “imitation of schizophrenic defect of conversion of DGLA to PGE1 in normal platelets” value ([2]; normal platelets incubated with l-levorphanol) was “can be limited in normal platelets by incubation with l-levorphanol” and the “effect on formation of 2 series PGs from AA” value [3] was “no effect on production of 2-series PGs from AA; also recorded: without blocking the formation of 2 series PGs from AA”. The “binding to and activation” value (opiate receptor) was “binds to and activates the opiate receptor”.
With CCCCC/C=C\C/C=C\C/C=C\CCCCC(=O)O [γ-linolenic acid] the “effect on immunological abnormalities of the strain” value (NZB/W mouse) was “can correct many of the immunological abnormalities of the strain”.
For “β-endorphin: natural opioid (YGGFMTSEKSQTPLVTLFKNAIIKNAYKKGE; Beta-endorphin; UniProt P01189 237-267, looked up)”, the “effect on formation … from DGLA” value [2] was “effect similar to levorphanol” and the “behaviour of treated normal platelets (PGE1 from DGLA)” value [2] was “behave like schizophrenic platelets”.
